Test system: yeast genes (level of expressed mRNA)
Test: DNA chip analysis of expressed mRNA of yeast genes after 2 h culture with a toxic chemical substance
Assay type: cell-based, Saccharomyces cerevisiae S288C
Settings: for The level of expressed mRNA in the presence of chemical substance/ (ratio to absence of chemical substance): stress protein genes, DNA chip
How it was run: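 Values are treated-to-control fluorescence ratios from a whole-yeast-genome DNA chip (65° C, over 12 h hybridization) using Cy3/Cy5-labelled cDNA from mRNA. Log-phase S288C cells in YPD at 25° C were exposed 2 h to a toxicant at sublethal, growth-inhibiting concentration.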

SMILES: CCCCC[C@H](O)CC(=O)CCc1ccc(O)c(OC)c1 [(13), gingerol]
- The level of expressed mRNA in the presence of chemical substance/The level of expressed mRNA in the absence of chemical substance (yeast gene YIL140W): 0.5
- The level of expressed mRNA in the presence of chemical substance/ (in its absence), gene YJL070C (yeast gene YJL070C, ratio of DNA chip fluorescence intensity to that without chemical substance): 1.8
- The level of expressed mRNA in the presence of chemical substance/The level of expressed mRNA in the absence of chemical substance (yeast gene YJL073W): 1.6
- The level of expressed mRNA in the presence of chemical substance/The level of expressed mRNA in the absence of chemical substance (yeast gene YJL089W): 1.8
- The level of expressed mRNA in the presence of chemical substance/ (ratio to absence), gene YJL096W (yeast gene YJL096W, mitochondria-located protein genes, 2 h culture with chemical): 0.7
- The level of expressed mRNA in the presence of chemical substance/The level of expressed mRNA in the absence of chemical substance (yeast gene YJL116C): 4.3
- The level of expressed mRNA in the presence of chemical substance/ (ratio to absence of chemical substance) (yeast gene YJL158C): 0.4
- The level of expressed mRNA in the presence of chemical substance/ (in its absence), gene YJL167W (yeast gene YJL167W, ratio of DNA chip fluorescence intensity to that without chemical substance): 0.9
- The level of expressed mRNA in the presence of chemical substance/ (ratio to absence), gene YJL180C (yeast gene YJL180C, mitochondria-located protein genes, 2 h culture with chemical): 1.2
- The level of expressed mRNA in the presence of chemical substance/ (in its absence), gene YJL216C (yeast gene YJL216C, ratio of DNA chip fluorescence intensity to that without chemical substance): 1.1
- The level of expressed mRNA in the presence of chemical substance/The level of expressed mRNA in the absence of chemical substance (yeast gene YJR004C): 0.3
- The level of expressed mRNA in the presence of chemical substance/The level of expressed mRNA in the absence of chemical substance (yeast gene YJR086W): 0.9
- The level of expressed mRNA in the presence of chemical substance/ (ratio to absence of chemical substance) (yeast gene YJR090C): 2.2
- The level of expressed mRNA in the presence of chemical substance/The level of expressed mRNA in the absence of chemical substance (yeast gene YKL008C): 1.7
- The level of expressed mRNA in the presence of chemical substance/The level of expressed mRNA in the absence of chemical substance (yeast gene YKL013C): 1.3
- The level of expressed mRNA in the presence of chemical substance/The level of expressed mRNA in the absence of chemical substance (yeast gene YKL039W): 1.9
- The level of expressed mRNA in the presence of chemical substance/The level of expressed mRNA in the absence of chemical substance (yeast gene YKL041W): 1.3
- The level of expressed mRNA in the presence of chemical substance/The level of expressed mRNA in the absence of chemical substance (yeast gene YKL096W): 0.1
- The level of expressed mRNA in the presence of chemical substance/ (ratio to absence of chemical substance) (yeast gene YKL164C): 0.9
- The level of expressed mRNA in the presence of chemical substance/The level of expressed mRNA in the absence of chemical substance (yeast gene YKL165C): 3.2
- The level of expressed mRNA in the presence of chemical substance/The level of expressed mRNA in the absence of chemical substance (yeast gene YKL193C): 2.1
- The level of expressed mRNA in the presence of chemical substance/ (in its absence), gene YKR009C (yeast gene YKR009C, ratio of DNA chip fluorescence intensity to that without chemical substance): 1.8
- The level of expressed mRNA in the presence of chemical substance/ (in its absence), gene YKR034W (yeast gene YKR034W, ratio of DNA chip fluorescence intensity to that without chemical substance): 1.2
- The level of expressed mRNA in the presence of chemical substance/ (ratio to absence of chemical substance) (yeast gene YKR053C): 0.7
- The level of expressed mRNA in the presence of chemical substance/ in its absence, gene YKR058W (yeast gene YKR058W, energy system protein genes, 2 h culture with the chemical, ratio to control without chemical): 0.7
- The level of expressed mRNA in the presence of chemical substance/ (in its absence), gene YLR006C (yeast gene YLR006C, ratio of DNA chip fluorescence intensity to that without chemical substance): 0.8
- The level of expressed mRNA in the presence of chemical substance/ (ratio to absence of chemical substance) (yeast gene YLR006C): 0.8
- The level of expressed mRNA in the presence of chemical substance/The level of expressed mRNA in the absence of chemical substance (yeast gene YLR120C): 4.8
- The level of expressed mRNA in the presence of chemical substance/The level of expressed mRNA in the absence of chemical substance (yeast gene YLR136C): 2.9
- The level of expressed mRNA in the presence of chemical substance/The level of expressed mRNA in the absence of chemical substance (yeast gene YLR178C): 7.5
- The level of expressed mRNA in the presence of chemical substance/The level of expressed mRNA in the absence of chemical substance (yeast gene YLR250W): 1.2
- The level of expressed mRNA in the presence of chemical substance/ in its absence, gene YLR295C (yeast gene YLR295C, energy system protein genes, 2 h culture with the chemical, ratio to control without chemical): 0.8
- The level of expressed mRNA in the presence of chemical substance/ (ratio to absence), gene YLR295C (yeast gene YLR295C, mitochondria-located protein genes, 2 h culture with chemical): 0.8
- The level of expressed mRNA in the presence of chemical substance/The level of expressed mRNA in the absence of chemical substance (yeast gene YLR327C): 2.8
- The level of expressed mRNA in the presence of chemical substance/ (in its absence), gene YLR351C (yeast gene YLR351C, ratio of DNA chip fluorescence intensity to that without chemical substance): 0.9
- The level of expressed mRNA in the presence of chemical substance/The level of expressed mRNA in the absence of chemical substance (yeast gene YLR356W): 2.5
- The level of expressed mRNA in the presence of chemical substance/The level of expressed mRNA in the absence of chemical substance (yeast gene YLR362W): 2.4
- The level of expressed mRNA in the presence of chemical substance/ (in its absence), gene YLR375W (yeast gene YLR375W, ratio of DNA chip fluorescence intensity to that without chemical substance): 1.6
- The level of expressed mRNA in the presence of chemical substance/The level of expressed mRNA in the absence of chemical substance (yeast gene YLR391W): 0.9
- The level of expressed mRNA in the presence of chemical substance/The level of expressed mRNA in the absence of chemical substance (yeast gene YLR429W): 2.3
- The level of expressed mRNA in the presence of chemical substance/ in its absence, gene YML129C (yeast gene YML129C, energy system protein genes, 2 h culture with the chemical, ratio to control without chemical): 1.0
- The level of expressed mRNA in the presence of chemical substance/ (ratio to absence), gene YML129C (yeast gene YML129C, mitochondria-located protein genes, 2 h culture with chemical): 1.0
- The level of expressed mRNA in the presence of chemical substance/The level of expressed mRNA in the absence of chemical substance (yeast gene YMR004W): 2.2
- The level of expressed mRNA in the presence of chemical substance/ (ratio to absence), gene YMR023C (yeast gene YMR023C, mitochondria-located protein genes, 2 h culture with chemical): 1.1
- The level of expressed mRNA in the presence of chemical substance/The level of expressed mRNA in the absence of chemical substance (yeast gene YMR094W): 1.4
- The level of expressed mRNA in the presence of chemical substance/The level of expressed mRNA in the absence of chemical substance (yeast gene YMR104C): 1.5
- The level of expressed mRNA in the presence of chemical substance/ (ratio to absence of chemical substance) (yeast gene YMR186W): 2.4
- The level of expressed mRNA in the presence of chemical substance/The level of expressed mRNA in the absence of chemical substance (yeast gene YMR219W): 2.1
- The level of expressed mRNA in the presence of chemical substance/The level of expressed mRNA in the absence of chemical substance (yeast gene YMR226C): 1.6
- The level of expressed mRNA in the presence of chemical substance/ in its absence, gene YMR267W (yeast gene YMR267W, energy system protein genes, 2 h culture with the chemical, ratio to control without chemical): 0.7
- The level of expressed mRNA in the presence of chemical substance/ (ratio to absence), gene YMR267W (yeast gene YMR267W, mitochondria-located protein genes, 2 h culture with chemical): 0.7
- The level of expressed mRNA in the presence of chemical substance/ in its absence, gene YMR267W (yeast gene YMR267W, ratio of DNA chip fluorescence intensity to that without chemical substance): 0.7
- The level of expressed mRNA in the presence of chemical substance/The level of expressed mRNA in the absence of chemical substance (yeast gene YMR275C): 2.1
- The level of expressed mRNA in the presence of chemical substance/The level of expressed mRNA in the absence of chemical substance (yeast gene YMR276W): 1.9
- The level of expressed mRNA in the presence of chemical substance/ (in its absence), gene YMR278W (yeast gene YMR278W, ratio of DNA chip fluorescence intensity to that without chemical substance): 2.5
- The level of expressed mRNA in the presence of chemical substance/ (in its absence), gene YMR293C (yeast gene YMR293C, ratio of DNA chip fluorescence intensity to that without chemical substance): 0.8
- The level of expressed mRNA in the presence of chemical substance/The level of expressed mRNA in the absence of chemical substance (yeast gene YMR314W): 2.6
